Measured values from patent publication US20120004235A1, “METHODS TO TREAT CANCER” (Rutgers, The State University of New Jersey, priority 2009, published 2012).
Values joined by “and” are separate entries in the source; they are usually repeats but may differ in a detail not shown here. Identical values can stand only once. Counter-ions that a name gives are not always drawn. Like-named read-outs stand apart in the source and are kept apart here.

Experiments:
[1] = tested on: Human H460 Non-Small Cell Lung Carcinoma Tumor Xenograft Model; assay: Test D xenograft, Compound 2 free base; type: in vivo, nu/nu mice; conditions: qod × 3
Description: (§1) The anti-tumor activity of Compound 2 (free base) was evaluated against a variety of human tumor xenograft models. A summary of the studies, including tumor type, dosing and administration, growth inhibition, and major findings is presented below.

[2] = tested on: NCI-H460 human non-small cell lung carcinoma xenograft; assay: Compound 2 citrate salt vs. NCI-H460 xenograft model (pemetrexed, topotecan, cisplatin controls); conditions: for mean tumor volume of the animals not at endpoint: 3 animals
[3] = tested on: HT-29 human colon tumor xenograft; assay: Compound 2 citrate salt vs. HT-29 human colon tumor model
[4] = tested on: NCI-H460 human non-small cell lung carcinoma xenograft; assay: Compound 2 citrate salt vs. NCI-H460 xenograft model (docetaxel control)
[5] = tested on: HCT-116 human colon tumor xenograft; assay: Compound 2 citrate salt vs. HCT-116 human colon tumor xenograft model (IV)
[6] = tested on: MDA-MB-231 human breast tumor xenograft; conditions: for animals not yet reached the study endpoint of 1500 mm^3: Day 90
[7] = tested on: NCI-H460 human non-small cell lung carcinoma xenograft; assay: Comparison dose schedule study in the NCI-H460 xenograft model; type: in vivo, nude (nu/nu) mice
Text: Irinotecan served as the positive control.

[8] = tested on: Human HCT-116 Colon Tumor Xenograft Model; assay: Test D xenograft, Compound 2 and metabolites; conditions: qod × 3 for 2 cycles
[9] = tested on: human HCT-116 colon ca, HT-29 colon ca and NCI-H460 NSCLC cells; assay: 72 hour exposure concentration response in tumor cells (Example 22); type: cell-based; conditions: range over HCT-116, HT-29 and NCI-H460 cells and the three compounds
Description: The in vitro and in vivo activity of compound 2 and two of its metabolites (compound 5 and compound 6) were explored and compared with the activity of camptothecin Top1 inhibitors. […] In human HCT-116 colon ca, HT-29 colon ca and NCI-H460 NSCLC cells the concentration response for compound 2, compound 5 and compound 6 were the same. […] Compound 2 was administered intravenously on a QODx3 schedule for 2 cycles.

[10] = tested on: Human LOX-IMVI Melanoma Tumor Xenograft Model; assay: Test D xenograft, Compound 2 free base; conditions: 90 mg/kg/day IP, qd × 5
[11] = tested on: Human SK-MEL-3 Melanoma Tumor Xenograft Model; assay: Test D xenograft, Compound 2 free base; type: in vivo, nu/nu mice; conditions: 90 mg/kg/day IP, qd × 5
Description: as §1

[12] = tested on: Human H1299 Lung Tumor Xenograft Model; assay: Test D xenograft, Compound 2 free base; conditions: qod × 3
[13] = tested on: Human NCI-H292 Lung Tumor Xenograft Model; assay: Test D xenograft, Compound 2 free base; conditions: qod × 3
[14] = tested on: Human MDA-MB-231 Breast Tumor Xenograft Model; assay: Test D xenograft, Compound 2 free base; conditions: qod × 3
[15] = tested on: Human HCT-15 Colon Tumor Xenograft Model; assay: Test D xenograft, Compound 2 free base; type: in vivo, nu/nu mice; conditions: 60 mg/kg/day IV, q4d×3
[16] = tested on: HCT-116 human colon tumor xenograft; assay: Compound 2 after oral administration vs. the HCT-116 xenograft model; conditions: 60 mg/kg/day IP, q4d×3
[17] = tested on: Human DLD-1 Colon Tumor Xenograft Model; assay: Test D xenograft, Compound 2 free base; type: in vivo, nu/nu mice; conditions: 60 mg/kg/day IV
[18] = tested on: Human 786-0 Renal Cell Tumor Xenograft Model; assay: Test D xenograft, Compound 2 free base; type: in vivo, nu/nu mice; conditions: 60 mg/kg/day IV, q4d×3
[19] = 2.72 mg/kg/day IP, qod×3 weekly for 2 cycles
[20] = 4.08 mg/kg/day IP, qod×3 weekly for 2 cycles
[21] = all dosages (0.68, 1.36, 2.72 mg/kg IP, qod×3 weekly for 2 cycles)
[22] = 1.36 mg/kg/day IV, qod×3 weekly for 2 cycles
[23] = 2.72 mg/kg/day IV, qod×3 weekly for 2 cycles
[24] = 2.04 mg/kg/day IP, qod×3 weekly for 2 cycles
[25] = 2.72 mg/kg/day IP, qod×3 weekly for 2 cycles, Day 53
[26] = 60 mg/kg/day IP, qod×3 weekly for 2 cycles

N.N.[Cl][Pt][Cl] [Cisplatin]
Increase in Life Span (ILS) ([1]; 3.3 mg/kg/day IP): 1.4x
Tumor Growth Delay T-C ([1]; 3.3 mg/kg/day IP): 11 days
Tumor Growth Inhibition T/C (tumor volume) ([1]; 3.3 mg/kg/day IP): 44.5%
antitumor activity ([2]; 0.75 and 1.5 mg/kg/day IP, qd×5): only active at the high dose
antitumor activity (TGI and TGD evaluation points) ([2]; high dose (1.5 mg/kg/day IP, qd×5)): low activity at both evaluation points

CNCCn1c(=O)c2cc(OC)c(OC)cc2c2cnc3cc4c(cc3c21)OCO4 [Compound 2 citrate salt, 8,9-dimethoxy-2,3-methylenedioxy-5-[2-(N-methylamino)ethyl]-5H-dibenzo[c,h]1,6-naphthyridin-6-one]
TGI (T/C) [3, 19]: 50.1%
TGD ([3]; 2.72 mg/kg/day IP, qod×3 weekly for 2 cycles, vs untreated control): 16 days
ILS [3, 20]: 1.7 fold
TGD (T-C) [3, 20]: 31 days
TGI (T/C) [3, 20]: 18.9%
tolerability ([3]; dose levels tested (1.36, 2.72, 4.08 mg/kg/day IP, qod×3 weekly for 2 cycles)): well tolerated
ILS [4, 19]: 2.0 fold
TGD (T-C) [4, 19]: 24 days
TGI (T/C) [4, 19]: 35.1%
body weight loss [4, 21]: < 20%
toxic deaths [4, 21]: no toxic deaths
ILS [5, 22]: 1.6 fold
TGD (T-C) [5, 22]: 18 days
TGI (T/C) [5, 22]: 45.0%
ILS [5, 23]: > 2.2 fold
TGD [5, 23]: > 34 days
mice survivors at conclusion of the study ([5]; 2.72 mg/kg/day IV, qod×3 weekly for 2 cycles, Day 62): 50%
weight loss ([5]; 5.44 mg/kg/day IV, qod×3 weekly for 2 cycles): > 30%
toxic deaths ([5]; 5.44 mg/kg/day IV, qod×3 weekly for 2 cycles, groups of 8): ⅝
TGD [6, 24]: 52 days
animals not yet reached the study endpoint of 1500 mm^3 [6, 24]: 2 of 8
TGD [6, 19]: > 58 days
animals not yet reached the study endpoint of 1500 mm^3 [6, 19]: 4 of 8
ILS ([6]; 3.27 mg/kg/day IP, qd×5): > 2.0 fold
TGD (T-C) ([6]; 3.27 mg/kg/day IP, qd×5): 42 days
TGI (T/C) ([6]; 3.27 mg/kg/day IP, qd×5): 9.5%
maximum weight loss ([6]; 3.27 mg/kg/day IP, qd×5): 15.7%
mice remaining on Day 90 ([6]; 3.27 mg/kg/day IP, qd×5): one
TGI (T/C) ([2]; 2.59 mg/kg/day IP, qd×5): 30.5%
toxic deaths [2, 19]: no toxic deaths
animals not yet reached the study endpoint of 2000 mm^3 [2, 25]: 3 of 8
weight loss recovered at study termination [2, 25]: approximately 12%
mean tumor volume of the animals not at endpoint [2, 25]: 1583 mm^3
maximum weight loss ([2]; 2.72 mg/kg/day IP, qod×3 weekly for 2 cycles, on Day 22): 22.3%
TGI (T/C) ([2]; 3.27 mg/kg/day IP, qd×5): 33.5%
animals not yet reached the study endpoint of 2000 mm^3 ([2]; 3.27 mg/kg/day IP, qd×5): 3 of 8
mean tumor volume of the animals not at endpoint ([2]; 3.27 mg/kg/day IP, qd×5): 1722 mm^3
maximum weight loss ([7]; 4.90 mg/kg/day IP, q4d×5, on Day 34): 24.2%

CNCCn1c(=O)c2cc(O)c(OC)cc2c2cnc3cc4c(cc3c21)OCO4 [Compound 5]
Increase in Life Span (ILS) ([8]; 4 mg/kg/day IV): 1.8x
Tumor Growth Delay T-C ([8]; 4 mg/kg/day IV): 25 days
Tumor Growth Inhibition T/C (tumor volume) ([8]; 4 mg/kg/day IV): 27.3%
Increase in Life Span (ILS) ([8]; 6 mg/kg/day IV): 1.9x
Tumor Growth Delay T-C ([8]; 6 mg/kg/day IV): 28 days
Tumor Growth Inhibition T/C (tumor volume) ([8]; 6 mg/kg/day IV): 23.4%
Increase in Life Span (ILS) ([8]; 8 mg/kg/day IV): 2.0x
Tumor Growth Delay T-C ([8]; 8 mg/kg/day IV): 32 days
Tumor Growth Inhibition T/C (tumor volume) ([8]; 8 mg/kg/day IV): 27.2%
IC50 ([9]; read-out: IC50 concentrations): 0.5 to 0.65 nM
IC90 ([9]; read-out: IC90 concentrations): 1.8 to 2 nM

CN(C)/N=N/c1[nH]cnc1C(N)=O [Dacarbazine, reference compound]
Increase in Life Span (ILS) [10]: 2.0x
Tumor Growth Delay T-C [10]: 28 days and 14 days
Tumor Growth Inhibition T/C (tumor volume) [10]: 80.6%
Increase in Life Span (ILS) [11]: 1.0x
Tumor Growth Delay T-C [11]: 0 days
Tumor Growth Inhibition T/C (tumor volume) [11]: 88.5%

CC(=O)O[C@@]12CO[C@@H]1C[C@H](O)[C@@]1(C)C(=O)[C@H](O)C3=C(C)[C@@H](OC(=O)[C@H](O)[C@@H](NC(=O)OC(C)(C)C)c4ccccc4)C[C@@](O)([C@@H](OC(=O)c4ccccc4)[C@H]21)C3(C)C [Docetaxel, reference compound]
Increase in Life Span (ILS) ([12]; 16 mg/kg/day IV): 1.4x
Tumor Growth Delay T-C ([12]; 16 mg/kg/day IV): 11 days
Tumor Growth Inhibition T/C (tumor volume) ([12]; 16 mg/kg/day IV): 35.2%
Increase in Life Span (ILS) ([12]; 20 mg/kg/day IV): 1.6x
Tumor Growth Delay T-C ([12]; 20 mg/kg/day IV): 17 days
Tumor Growth Inhibition T/C (tumor volume) ([12]; 20 mg/kg/day IV): 20.7%
TGD (T-C) ([4]; 20 mg/kg/day IV, qod × 3): 21 days
TGI (T/C) ([4]; 20 mg/kg/day IV, qod × 3): 22.7%
time to recover the weight loss ([4]; 20 mg/kg/day IV, qod × 3): ≤ 13 days
toxic deaths ([4]; 20 mg/kg/day IV, qod × 3): no toxic deaths
maximum weight loss ([4]; 20 mg/kg/day IV, qod×3, on Day 25): 26.4%
Increase in Life Span (ILS) ([13]; 16 mg/kg/day IV): 2.1x
Tumor Growth Delay T-C ([13]; 16 mg/kg/day IV): 39 days
Tumor Growth Inhibition T/C (tumor volume) ([13]; 16 mg/kg/day IV): 8.7%
Increase in Life Span (ILS) ([13]; 20 mg/kg/day IV): 2.1x
Tumor Growth Delay T-C ([13]; 20 mg/kg/day IV): 39 days
Tumor Growth Inhibition T/C (tumor volume) ([13]; 20 mg/kg/day IV): 6.0%
Increase in Life Span (ILS) ([14]; 16 mg/kg/day IV): >2.3x
Tumor Growth Delay T-C ([14]; 16 mg/kg/day IV): >47 days
Tumor Growth Inhibition T/C (tumor volume) ([14]; 16 mg/kg/day IV): 4.8%
Increase in Life Span (ILS) ([14]; 20 mg/kg/day IV): >2.3x
Tumor Growth Delay T-C ([14]; 20 mg/kg/day IV): >47 days
Tumor Growth Inhibition T/C (tumor volume) ([14]; 20 mg/kg/day IV): 4.0%
Increase in Life Span (ILS) ([1]; 12 mg/kg/day IV): 1.4x
Tumor Growth Delay T-C ([1]; 12 mg/kg/day IV): 11 days
Tumor Growth Inhibition T/C (tumor volume) ([1]; 12 mg/kg/day IV): 49.8%

CCc1c2c(nc3ccc(OC(=O)N4CCC(N5CCCCC5)CC4)cc13)-c1cc3c(c(=O)n1C2)COC(=O)[C@]3(O)CC [Irinotecan, reference compound]
Increase in Life Span (ILS) [15]: 1.7x
Tumor Growth Delay T-C [15]: 28 days
ILS [16]: > 1.5 fold
TGD (T-C) [16]: > 18 days
body weight loss [16]: < 10%
animals remaining at study termination ([16]; Day 53): 8 of 9
Tumor Growth Delay T-C ([17]; q4d×3): 5 days
Increase in Life Span (ILS) ([17]; q4d × 3, listed as CPT-11): 1.1x
TGD ([3]; 60 mg/kg/day IV, q4d×3): no TGD was observed
TGI (T/C) ([3]; 60 mg/kg/day IV, q4d×3): 52.7%
tolerability ([3]; 60 mg/kg/day IV, q4d×3): well tolerated
ILS ([5]; 60 mg/kg/day IV, q4d×3): 1.5 fold
TGD (T-C) ([5]; 60 mg/kg/day IV, q4d×3): 14 days
tolerability ([5]; 60 mg/kg/day IV, q4d×3): tolerated well
Increase in Life Span (ILS) [18]: 1.4x
Tumor Growth Delay T-C [18]: 17 days
ILS [6, 26]: > 2.0 fold
TGD (T-C) [6, 26]: 38 days
TGI (T/C) [6, 26]: 10%
body weight loss [6, 26]: 20%
ILS ([7]; 60 mg/kg/day IP, q4d×3): 1.7 fold
TGD (T-C) ([7]; 60 mg/kg/day IP, q4d×3): 14 days
ILS [7, 26]: 2.5 fold
TGD (T-C) [7, 26]: 29 days
TGI (T/C) [7, 26]: 19.0%
